In ChEMBL document CHEMBL3271942, “(Vinylaryloxy)acetic acids. A new class of diuretic agents. 2. (4-(3-Oxo-1-alkenyl)phenoxy)acetic acids” (1976):

Key:
[1] = system: Canis familiaris; test: Diuretic activity in mongrel dog assessed as urine volume at 10 mg/kg, iv measured after 15 and 45 mins (reference value: 1 to 2 ml/min); assay type: functional, Canis lupus familiaris
[2] = system: Canis familiaris; test: Diuretic activity in mongrel dog assessed as excretion of chloride ion at 10 mg/kg, iv measured after 15 and 45 mins (reference value: 4 to 64 uequiv/min); assay type: functional, Canis lupus familiaris, Urine
[3] = system: Canis familiaris; test: Diuretic activity in mongrel dog assessed as excretion of sodium ion at 10 mg/kg, iv measured after 15 and 45 mins (reference value: 13 to 54 uequiv/min); assay type: functional, Canis lupus familiaris, Urine
[4] = system: Canis familiaris; test: Diuretic activity in mongrel dog assessed as excretion of potassium ion at 10 mg/kg, iv measured after 15 and 45 mins (reference value: 16 to 37 uequiv/min); assay type: functional, Canis lupus familiaris, Urine
[5] = system: Canis familiaris; test: Diuretic activity in mongrel dog assessed as excretion of potassium ion per 6 hrs at 1 mg/kg, po (reference value: 1 mequiv/min); assay type: functional, Canis lupus familiaris, Urine
[6] = system: Canis familiaris; test: Diuretic activity in mongrel dog assessed as excretion of chloride ion per 6 hrs at 1 mg/kg, po (reference value: 2 mequiv/min); assay type: functional, Canis lupus familiaris, Urine
[7] = system: Canis familiaris; test: Diuretic activity in mongrel dog assessed as urine volume per 6 hrs at 1 mg/kg, po (reference value: 180 ml); assay type: functional, Canis lupus familiaris
[8] = system: Canis familiaris; test: Diuretic activity in mongrel dog assessed as excretion of sodium ion per 6 hrs at 1 mg/kg, po (reference value: 2 mequiv/min); assay type: functional, Canis lupus familiaris, Urine
[9] = system: Canis familiaris; test: Diuretic activity in mongrel dog assessed as excretion of potassium ion at 5 mg/kg, iv measured after 15 and 45 mins (reference value: 15 to 55 uequiv/min); assay type: functional, Canis lupus familiaris, Urine
[10] = system: Canis familiaris; test: Diuretic activity in mongrel dog assessed as excretion of sodium ion at 25 mg/kg, iv measured after 15 and 45 mins (reference value: 42 uequiv/min); assay type: functional, Canis lupus familiaris, Urine
[11] = system: Canis familiaris; test: Diuretic activity in mongrel dog assessed as excretion of sodium ion at 5 mg/kg, iv measured after 15 and 45 mins (reference value: 5 to 99 uequiv/min); assay type: functional, Canis lupus familiaris, Urine
[12] = system: Canis familiaris; test: Diuretic activity in mongrel dog assessed as urine volume at 25 mg/kg, iv measured after 15 and 45 mins (reference value: 5 ml/min); assay type: functional, Canis lupus familiaris
[13] = system: Canis familiaris; test: Diuretic activity in mongrel dog assessed as urine volume at 5 mg/kg, iv measured after 15 and 45 mins (reference value: 1 to 2 ml/min); assay type: functional, Canis lupus familiaris
[14] = system: Canis familiaris; test: Diuretic activity in mongrel dog assessed as excretion of chloride ion at 25 mg/kg, iv measured after 15 and 45 mins (reference value: 6 uequiv/min); assay type: functional, Canis lupus familiaris, Urine
[15] = system: Canis familiaris; test: Diuretic activity in mongrel dog assessed as excretion of chloride ion at 5 mg/kg, iv measured after 15 and 45 mins (reference value: 7 to 13 uequiv/min); assay type: functional, Canis lupus familiaris, Urine
[16] = system: Canis familiaris; test: Diuretic activity in mongrel dog assessed as excretion of potassium ion at 25 mg/kg, iv measured after 15 and 45 mins (reference value: 42 uequiv/min); assay type: functional, Canis lupus familiaris, Urine
[17] = system: Canis familiaris; test: Diuretic activity in mongrel dog assessed as excretion of potassium ion at 1 mg/kg, iv measured after 15 and 45 mins (reference value: 46 to 28 uequiv/min); assay type: functional, Canis lupus familiaris, Urine
[18] = system: Canis familiaris; test: Diuretic activity in mongrel dog assessed as excretion of potassium ion at 0.1 mg/kg, iv measured after 15 and 45 mins (reference value: 14 to 35 uequiv/min); assay type: functional, Canis lupus familiaris, Urine
[19] = system: Canis familiaris; test: Diuretic activity in mongrel dog assessed as excretion of sodium ion at 0.1 mg/kg, iv measured after 15 and 45 mins (reference value: 36 to 73 uequiv/min); assay type: functional, Canis lupus familiaris, Urine
[20] = system: Canis familiaris; test: Diuretic activity in mongrel dog assessed as urine volume at 1 mg/kg, iv measured after 15 and 45 mins (reference value: 1 to 4 ml/min); assay type: functional, Canis lupus familiaris
[21] = system: Canis familiaris; test: Diuretic activity in mongrel dog assessed as urine volume at 0.1 mg/kg, iv measured after 15 and 45 mins (reference value: 1 to 3 ml/min); assay type: functional, Canis lupus familiaris
[22] = system: Canis familiaris; test: Diuretic activity in mongrel dog assessed as excretion of chloride ion at 1 mg/kg, iv measured after 15 and 45 mins (reference value: 10 to 26 uequiv/min); assay type: functional, Canis lupus familiaris, Urine
[23] = system: Canis familiaris; test: Diuretic activity in mongrel dog assessed as excretion of sodium ion at 1 mg/kg, iv measured after 15 and 45 mins (reference value: 26 to 58 uequiv/min); assay type: functional, Canis lupus familiaris, Urine
[24] = system: Canis familiaris; test: Diuretic activity in mongrel dog assessed as excretion of chloride ion at 0.1 mg/kg, iv measured after 15 and 45 mins (reference value: 14 to 48 uequiv/min); assay type: functional, Canis lupus familiaris, Urine
[25] = system: Canis familiaris; test: Diuretic activity in mongrel dog assessed as excretion of sodium ion per 6 hrs at 2 mg/kg, po (reference value: 2 mequiv/min); assay type: functional, Canis lupus familiaris, Urine
[26] = system: Canis familiaris; test: Diuretic activity in mongrel dog assessed as excretion of chloride ion per 6 hrs at 2 mg/kg, po (reference value: 2 mequiv/min); assay type: functional, Canis lupus familiaris, Urine
[27] = system: Canis familiaris; test: Diuretic activity in mongrel dog assessed as urine volume per 6 hrs at 2 mg/kg, po (reference value: 180 ml); assay type: functional, Canis lupus familiaris
[28] = system: Canis familiaris; test: Diuretic activity in mongrel dog assessed as excretion of potassium ion per 6 hrs at 2 mg/kg, po (reference value: 1 mequiv/min); assay type: functional, Canis lupus familiaris, Urine

SMILES | Activity [1] [mL/min] | Activity [2] [uEq/min] | Activity [3] [uEq/min] | Activity [4] [uEq/min] | Activity [9] [uEq/min] | Activity [11] [uEq/min] | Activity [13] [mL/min] | Activity [15] [uEq/min] | further results
CC(=O)/C=C/c1ccc(OCC(=O)O)cc1 | 5 | 55 | 91 | 50 | – | – | – | – | –
CC(=O)/C=C/c1ccc(OCC(=O)O)cc1Cl | 3 | 258 | 265 | 79 | – | – | – | – | –
CCC(=O)/C(C)=C/c1ccc(OCC(=O)O)c(Cl)c1Cl | 2 | 67 | 79 | 42 | – | – | – | – | –
NS(=O)(=O)c1cc(C(=O)O)c(NCc2ccco2)cc1Cl [FUROSEMIDE] | – | – | – | – | – | – | – | – | Activity [5]: 4 milliequivalent; Activity [6]: 18 milliequivalent; Activity [7]: 624 mL; Activity [8]: 19 milliequivalent
C/C(C=O)=C\c1ccc(OCC(=O)O)c(Cl)c1Cl | – | – | – | – | 51 | 140 | 3 | 130 | Activity [10]: 449 uEq/min; Activity [12]: 5 mL/min; Activity [14]: 542 uEq/min; Activity [16]: 86 uEq/min
CCC(=O)/C=C/c1ccc(OCC(=O)O)c(Cl)c1Cl | 8 | 1089 | 973 | 118 | – | – | – | – | –
CC(=O)C(=Cc1ccc(OCC(=O)O)c(Cl)c1Cl)C(C)=O | – | – | – | – | – | – | – | – | Activity [17]: 104 uEq/min; Activity [18]: 87 uEq/min; Activity [19]: 984 uEq/min; Activity [20]: 11 mL/min; Activity [21]: 9 mL/min
O=C(O)COc1ccc(/C=C2\CCCC2=O)c(Cl)c1Cl | – | – | – | – | – | – | – | – | Activity [22]: 330 uEq/min; Activity [17]: 74 uEq/min; Activity [23]: 298 uEq/min; Activity [20]: 4 mL/min
O=C(O)COc1ccc(/C=C2\CCC2=O)c(Cl)c1Cl | 8 | 822 | 833 | 93 | – | – | – | – | Activity [18]: 89 uEq/min; Activity [19]: 393 uEq/min; Activity [24]: 408 uEq/min; Activity [21]: 9 mL/min
C=C(CC)C(=O)c1ccc(OCC(=O)O)c(Cl)c1Cl [ETHACRYNIC ACID] | 22 | 3324 | 2989 | 194 | – | – | – | – | Activity [22]: 244 uEq/min; Activity [17]: 52 uEq/min; Activity [23]: 188 uEq/min; Activity [5]: 5 milliequivalent; Activity [6]: 26 milliequivalent; Activity [7]: 560 mL; Activity [8]: 21 milliequivalent; Activity [20]: 6 mL/min
CC(=O)/C=C/c1ccc(OCC(=O)O)c(Cl)c1Cl | – | – | – | – | 76 | 911 | 8 | 1078 | –
O=C(O)COc1ccc(/C=C2\CCCCC2=O)c(Cl)c1Cl | – | – | – | – | 119 | 1306 | 12 | 1340 | –
COc1cc(/C=C/C(C)=O)ccc1OCC(=O)O | – | – | – | – | 36 | 13 | 1 | 27 | –
CC(=O)/C(C)=C/c1ccc(OCC(=O)O)c(Cl)c1Cl | – | – | – | – | 132 | 1096 | 10 | 1140 | Activity [25]: 16 milliequivalent; Activity [26]: 21 milliequivalent; Activity [5]: 5 milliequivalent; Activity [6]: 9 milliequivalent; Activity [7]: 422 mL; Activity [27]: 506 mL; Activity [8]: 9 milliequivalent; Activity [28]: 3 milliequivalent
